Assays:
[1] = system: carbapenem-resistant P. aeruginosa clinical isolate CFS-1292; test: MIC by modified CLSI broth microdilution against P. aeruginosa CFS-1292 (CAA, CAA + human serum); format: cell-based, Pseudomonas aeruginosa; conditions: for MIC (μg/mL) against CFS-1292 in 100% CAA (1st run/2nd run): 1st run or single value
[2] = system: Enterobacter cloacae; test: microbe, parasite or virus in culture; format: cell-based; conditions: Enterobacter cloacae ATCC 13047; CAA supplemented with human serum
Method: (§1) Determination of Minimal Inhibitory Concentrations (MIC).
(§2) Additional MIC testing was performed for several peptides against the ESKAPE pathogens Escherichia coli, Enterobacter cloacae, Klebsiella pneumoniae, and Acinetobacter baumannii, in CAA supplemented with human serum (Table D).

[3] = system: Escherichia coli; test: microbe, parasite or virus in culture; format: cell-based; conditions: Escherichia coli ATCC 25922; CAA supplemented with human serum
Method: as §1, §2

[4] = system: Klebsiella pneumoniae; format: cell-based; conditions: Klebsiella pneumoniae HM-44; CAA supplemented with human serum
Method: as §1, §2

[5] = system: Acinetobacter baumannii; test: microbe, parasite or virus in culture; format: cell-based; conditions: Acinetobacter baumannii ATCC BAA 747; CAA supplemented with human serum
[6] = Stability assessment in 100% CAA; format: in vitro ADME; parameters: unit not given beside the values
Method: Stability was assessed after incubation in 100% human serum at 37° C. after 10 minutes, 1 hour, and 2 hours.
Stability assessment was further conducted in 100% CAA and rabbit serum using the same methodology discussed above.

[7] = system: M. smegmatis; test: 45 hr MIC against M. smegmatis (NTM), Mueller Hinton broth; format: cell-based, Mycobacterium smegmatis; conditions: M. smegmatis MC^2 155, Run #1
[8] = system: P. aeruginosa strain CFS-1292; test: Checkerboard assay (FICI) with antibiotics, P. aeruginosa; format: cell-based, Pseudomonas aeruginosa; conditions: for Antibiotic FIC: P. aeruginosa CFS-1292; for Antibiotic MIC in checkerboard: P. aeruginosa CFS-1292, CAA + […] human serum
Method: Any known method to assess MIC may be used.
Checkerboards are constructed by first preparing columns of e.g., a 96-well polypropylene microtiter plate, wherein each well has the same amount of antibiotic diluted 2-fold along the horizontal axis. […] Bacteria are added to the drug combinations at concentrations of 1×10^5 […] in CAA, for example, with or without human serum or pulmonary surfactant. […] Summation fractional inhibitory concentrations (ΣFICs) are calculated for each drug and the minimum ΣFIC value (ΣFICmin) is used to determine the effect of the Chp peptide/antibiotic combination.
(§3) Checkerboard assays. […] Checkerboards were constructed by first preparing columns of a 96-well polypropylene microtiter plate, in which each well had the same amount of antibiotic diluted 2-fold along the horizontal axis. […] Summation fractional inhibitory concentration index (FICIs) were calculated for each drug and the minimum FICI was used to determine synergy. FICIs were calculated as follows: FICI=FIC A+FIC B, where FIC A is the MIC of each antibiotic in the combination/MIC of the each antibiotic alone, and FIC B is the MIC of each Chp peptide in the combination/MIC of each Chp peptide alone. The combination is considered synergistic when the FICI is ≤0.5, strongly additive when the FICI is >0.5 to <1, additive with the FICI is 1-<2, and antagonistic when the FICI is ≥2.
In the checkerboard assay, fractional inhibitory concentration index (FICI) values are calculated.

[9] = system: Klebsiella pneumoniae strain 1139; test: Checkerboard assay (FICI) with antibiotics, K. pneumoniae; format: cell-based; conditions: for Antibiotic FIC / Antibiotic MIC: checkerboard
Method: as §3

[10] = system: Acinetobacter baumannii strain 30; test: Checkerboard assay (FICI) with antibiotics, A. baumannii; format: cell-based; conditions: checkerboard
Method: as §3
The results are shown below in Tables 22-27.

[11] = system: LPS; test: Endotoxin neutralization, limulus amoebocyte lysate (LAL) enzyme assay, LPS binding; format: biochemical; conditions: LPS 0.8 EU/mL
Method: CHEM. […] The standard reference samples contained only LPS dissolved in pyrogen-free water. Solutions were mixed well and incubated at 24° C. for 1 hour, and the manufacturers' test procedure for quantitative detection of endotoxins was followed.

Substance: MKKRTKALLPYAVFIILSFQLTLLTALFMYYHYTF [Lvp2]
- MIC (μg/mL) against CFS-1292 in 100% CAA (1st run/2nd run) [1]: 32 µg/mL
- MIC (μg/mL) against CFS-1292 in CAA + […] human serum [1]: 8 µg/mL

Substance: MKRKPMSRKASQKTFKKNTGVQRMNHLNPRAMRGGIRL [Bdp1]
- MIC (μg/mL) against CFS-1292 in 100% CAA (1st run/2nd run) [1]: 16 µg/mL
- MIC (μg/mL) against CFS-1292 in CAA + […] human serum [1]: >32 µg/mL
- MIC [2]: >32 µg/mL
- MIC [3]: >32 µg/mL
- MIC [4]: >32 µg/mL
- MIC [5]: >32 µg/mL
- MIC (100% CAA) [6]: 16
- 45 hr MIC [7]: 32 µg/mL

Substance: MRKKMHKSLDKRVFNRTAKKSKKINVNPVVYRGGIRL [CDL907]
- MIC (μg/mL) against CFS-1292 in 100% CAA (1st run/2nd run) [1]: 8 µg/mL
- MIC (μg/mL) against CFS-1292 in CAA + […] human serum [1]: 0.5 µg/mL
- 45 hr MIC [7]: >128 µg/mL

Substance: MRRYNVNKGKSAKKFRKQVSKTKVANLRSNPMRGGWRL [Unp6]
- MIC (100% CAA) [6]: 8
- 45 hr MIC [7]: 16 µg/mL

Substance: MSSTLCRWAVKALRCTRVYKEFIWKPLVALSYVTLYLLSSVFLSQLSYPIGSWAV [Lvp1]
- MIC (μg/mL) against CFS-1292 in 100% CAA (1st run/2nd run) [1]: >64 µg/mL
- MIC (μg/mL) against CFS-1292 in CAA + […] human serum [1]: 0.5 µg/mL
- MIC (μg/mL) against CFS-1292 in CAA + […] human serum ([1]; listed as Lvp1 + DTT): 2 µg/mL
- MIC (100% CAA) [6]: >64
- 45 hr MIC [7]: >128 µg/mL

Substance: MTKRDIEYRKALGLNPSEPLPKIVGAVTRHGATLKRPRVTALAR [SBR77]
- MIC (μg/mL) against CFS-1292 in 100% CAA (1st run/2nd run) [1]: 4 µg/mL
- MIC (μg/mL) against CFS-1292 in CAA + […] human serum [1]: >16 µg/mL
- MIC (μg/mL) against CFS-1292 in CAA + […] human serum ([1]; listed as SBR77 (Sbr1)): 0.5 µg/mL
- MIC (100% CAA) [6]: >64
- 45 hr MIC [7]: >64 µg/mL

Substance: colistin [reference compound]
- Antibiotic FIC ([8]; combined with Chp2-M1): 0.25
- Antibiotic MIC in checkerboard ([8]; combined with Chp2-M1): 0.01562 µg/mL
- Antibiotic FIC ([8]; combined with Chp2): 0.25
- Antibiotic MIC in checkerboard ([8]; combined with Chp2): 0.01562 µg/mL
- Antibiotic FIC ([8]; combined with Chp4-M1): 0.25
- Antibiotic MIC in checkerboard ([8]; combined with Chp4-M1): 0.03125 µg/mL
- Antibiotic FIC ([8]; combined with Chp6-M1): 0.25
- Antibiotic MIC in checkerboard ([8]; combined with Chp6-M1): 0.01562 µg/mL
- Antibiotic MIC in checkerboard ([8]; combined with Chp10-M1): 0.007806 µg/mL
- Antibiotic FIC ([8]; combined with Unp2-M1): 0.25
- Antibiotic MIC in checkerboard ([8]; combined with Unp2-M1): 0.01562 µg/mL
- Antibiotic FIC ([9]; in combination with Chp4-M1): 0.25
- Antibiotic MIC ([9]; in combination with Chp4-M1): 0.03125 µg/mL
- Antibiotic MIC ([9]; in combination with Chp6-M1): 0.01562 µg/mL
- Antibiotic FIC ([9]; in combination with Chp10-M1): 0.25
- Antibiotic MIC ([9]; in combination with Chp10-M1): 0.03125 µg/mL
- Antibiotic MIC ([9]; in combination with Unp2-M1): 0.03125 µg/mL
- Antibiotic MIC in checkerboard ([9]; combined with Chp2): 0.007812 µg/mL
- Antibiotic MIC in checkerboard ([9]; combined with Chp2-M1): 0.01562 µg/mL
- Antibiotic MIC ([10]; in combination with Chp2): 0.0009766 µg/mL
- Antibiotic FIC ([10]; in combination with Chp2-M1): 0.5
- Antibiotic FIC ([10]; in combination with Chp4-M1): 0.5
- Antibiotic MIC ([10]; in combination with Chp4-M1): 0.003906 µg/mL
- Antibiotic FIC ([10]; in combination with Chp6-M1): 0.25
- Antibiotic FIC ([10]; in combination with Chp10-M1): 0.25
- Antibiotic MIC ([10]; in combination with Chp10-M1): 0.0009766 µg/mL
- Antibiotic FIC ([10]; in combination with Unp2-M1): 0.5
- LPS binding ([11]; […]-64 μg/mL, 24° C., 1 hour): dose-dependent increases in LPS binding
- % LPS Bound ([11]; peptide concentration 0.5 μg/mL): 22.5%
- % LPS Bound ([11]; peptide concentration 1 μg/mL): 51.9%
- % LPS Bound ([11]; peptide concentration 2 μg/mL): 74.2%
- % LPS Bound ([11]; peptide concentration 4 μg/mL): 88.2%
- % LPS Bound ([11]; peptide concentration 8 μg/mL): 92.4%
- % LPS Bound ([11]; peptide concentration 16 μg/mL): 92.8%
- % LPS Bound ([11]; peptide concentration 32 μg/mL): 92.2%
- % LPS Bound ([11]; peptide concentration 64 μg/mL): 93.4%
